Measured values published in patent publication US4012284A (Societa' Farmaceutici Italia, S.p.A., priority 1962, dated 1977).

Tests used:
[1] = tested on: Ehrlich adenocarcinoma; assay: Ehrlich adenocarcinoma (solid) in mice (Table VI); format: in vivo, mouse; conditions: controls 0/10
[2] = tested on: Sarcoma 180; assay: Sarcoma 180 (solid) in mice (Table VII); format: in vivo, mouse; conditions: 2 mg/kg/day intraperitoneally, 7 days
Experimental: (§1) At least 20 animals per lot were used.
(§2) The checking of the activity on solid tumors has been carried out with Ehrlich adenocarcinoma and sarcoma 180 in the mouse and with Walker carcinosarcoma and the Oberling-Guerin-Guerin myeloma in the rat.
Mice grafted with a fragment of neoplastic tissue have been treated intraperitoneally for seven consecutive days, starting from the day following the tumor implantation. The antibiotic was administered in solution at a dose of 2 mg/kg/day. At the tenth day of experiment, all the mice were killed and the tumors and spleens were removed.

[3] = tested on: Hepatoma AH 130; assay: Ascitic hepatoma AH 130 in Wistar rats; format: in vivo, Wistar rat; conditions: 2 and 1 mg/kg/day intraperitoneally, 5 days, after 50 days of the experiment
Experimental: as §1
(§3) Activity tests were carried out on mice, bearing Ehrlich ascitic carcinoma and on rats, which are grafted with hepatoma AH 130 and Oberling-Guerin-Guerin myeloma.
Wistar rats, grafted with accitic hepatoma have been treated intraperitoneously for 5 consecutive days with antibiotic doses of 2 and 1 mg/kg/day.

[4] = Acute toxicity, mouse; conditions: in vivo
Description: (§4) In the following Table the acute toxicity of Daunomycin as LD50 is reported.

[5] = tested on: Oberling-Guerin-Guerin myeloma; assay: Oberling-Guerin-Guerin myeloma (solid) in rats, successive experiment (Table XI); format: in vivo, rat
Description: as §1
The checking of the activity on solid tumors has been carried out with Ehrlich adenocarcinoma and sarcoma 180 in the mouse and with Walker carcinosarcoma and the Oberling-Guerin-Guerin myeloma in the rat. […]

[6] = tested on: Oberling-Guerin-Guerin myeloma; assay: Oberling-Guerin-Guerin myeloma (solid) in Long-Evans rats (Table X); conditions: 10 days; for % Inhibition (tumor growth) / Average tumor weight: 13th day; for Average tumor weight: controls 17.23; for Mortality: controls 3/12; for Body weight change, not [net]: controls +28.-; for Body weight change, gross: controls +45.2
[7] = tested on: Ehrlich adenocarcinoma; assay: Ehrlich adenocarcinoma (solid) in mice (Table VI); format: in vivo, mouse; conditions: for Body weight change, not [net]: controls +2.27; for Body weight change, gross: controls +4.85; for % Inhibition (tumor growth) / Average tumor weight: eighth day; for Average tumor weight: controls 2.583
Description: as §1, §2
Mice grafted with a fragment of tumor subcutaneously for 6 days starting from the day after the transplantation have been treated with a solution of the antibiotic. At the eighth day of experiment all the animals were killed and the tumor was removed and weighed.

[8] = tested on: Walker carcinosarcoma; assay: Walker carcinosarcoma in rats, second experiment (Table IX); format: in vivo, rat; conditions: 3 mg/kg/day intravenously
Experimental: as §1, §2
A second experiment with rats, bearing the same tumor, has been carried out to investigate the effect of the antibiotic on the animals' survival besides the antitumor activity. In this case the rats were treated intravenously 8 times within 12 days at the dose of 3 mg/kg/day.

[9] = tested on: several microorganisms; assay: Bacteriostatic activity / antimicrobial spectrum (summary statements); format: cell-based
[10] = Acute toxicity, rat; conditions: in vivo
Description: as §4

[11] = tested on: Walker carcinosarcoma; assay: Walker carcinosarcoma in rats (Table VIII); format: in vivo, rat; conditions: for % Inhibition (tumor growth) / Average tumor weight / Mortality / Body weight change, not [net] / Body weight change, gross: 8 times within 10 days; for % Inhibition (tumor growth) / Average tumor weight: 11th day; for Average tumor weight: controls 15.940; for Mortality: controls 1/10; for Body weight change, not [net]: controls +6.96; for Body weight change, gross: controls +22.9
Description: as §1, §2
The rats grafted with this tumor have been treated intravenously 8 times within 10 days; at the 11th day of experiment, the surviving animals were killed and the tumors removed.

[12] = Solubility; format: physicochemical
[13] = tested on: Ehrlich ascitic carcinoma; assay: Ehrlich ascitic carcinoma, second experiment, intravenous (Table IV); format: in vivo, mouse; conditions: 1.75 mg/kg/day intravenously, 4 days
Experimental: as §1, §3
(§5) Mice are grafted intraporitoneally with a suspension of tumor cells and treated with solutions of different concentrations of the antibiotic for five consecutive days starting from the day following the tumor implantation.
The result has been confirmed by a successive experiment in which the antibiotic has been administered at the dose of 1.75 mg/kg intravenously for 4 days (Table IV).

[14] = tested on: Ehrlich ascitic carcinoma; assay: Ehrlich ascitic carcinoma in mice (Table III); format: in vivo, mouse; conditions: for Body weight increase / Average survival time: 5 days; for Average survival time: controls 16.4
Experimental: as §1, §3, §5

[15] = 2.5 mg/kg/day intravenously, 7 times within 14 days

Compound: COc1cccc2c1C(=O)c1c(O)c3c(c(O)c1C2=O)C[C@@](O)(C(C)=O)C[C@@H]3O[C@H]1C[C@H](N)[C@H](O)[C@H](C)O1 [F.I. 1762]
- Mortality ([1]; 3 mg/kg/day): 0/10
- Mortality ([1]; 6 mg/kg/day): 0/10
- spleen [2]: marked shrinkage of the spleen
- tumor growth [2]: marked inhibition of tumor growth
- Mortality ([2]; controls 0/10): 0/10
- Body weight change, not [net] ([2]; controls +2.83): -3.01 grams
- Body weight change, gross ([2]; controls +5.05): -1.72 grams
- % Inhibition, spleen ([2]; tenth day): 62.7%
- % Inhibition, tumor ([2]; tenth day): 42.1%
- Average weight, tumor ([2]; tenth day, controls 2.225): 1.289 grams
- Average weight, spleen ([2]; tenth day, controls 251): 93.5 milligrams
- trace of tumor [3]: In none of them was any trace of tumor noticed
- survival of treated rats ([3]; controls average survival 11.8 days): all the treated rats were still alive after 50 days of the experiment
- LD50 ([4]; intravenous): 20 mg/kg
- LD50 ([4]; ip, intraperitoneal): 5 mg/kg
- % Inhibition, spleen [5, 15]: 54.1%
- % Inhibition, tumor [5, 15]: 69.5%
- Average weight, spleen ([5]; 2.5 mg/kg/day intravenously, 7 times within 14 days, controls 1.303): 0.598 grams
- Mortality ([5]; 2.5 mg/kg/day intravenously, 7 times within 14 days, controls 5/15): 5/15
- Average weight, tumor ([5]; 2.5 mg/kg/day intravenously, 7 times within 14 days, controls 13.486): 4.114 grams
- Body weight change, not [net] ([5]; 2.5 mg/kg/day intravenously, 7 times within 14 days, controls +40.22): +16.79 grams
- Body weight change, gross ([5]; 2.5 mg/kg/day intravenously, 7 times within 14 days, controls +53.7): +20.9 grams
- tolerance of the antibiotic ([5]; Tables X and XI, 2 mg and 2.5 mg/kg/day intravenously): good tolerance
- activity against this kind of tumor ([5]; Tables X and XI, 2 mg and 2.5 mg/kg/day intravenously produced the best results): active also against this kind of tumor
- % Inhibition (tumor growth) ([6]; 2 mg/kg/day intravenously): 34.5%
- Average tumor weight ([6]; 2 mg/kg/day intravenously): 11.30 grams
- Mortality ([6]; 2 mg/kg/day intravenously): 0/12
- Body weight change, not [net] ([6]; 2 mg/kg/day intravenously): +20 grams
- Body weight change, gross ([6]; 2 mg/kg/day intravenously): +33.3 grams
- % Inhibition (tumor growth) ([6]; 4 mg/kg/day intravenously): 82.8%
- Average tumor weight ([6]; 4 mg/kg/day intravenously): 2.98 grams
- Mortality ([6]; 4 mg/kg/day intravenously): 4/12
- Body weight change, not [net] ([6]; 4 mg/kg/day intravenously): +0.8 grams
- Body weight change, gross ([6]; 4 mg/kg/day intravenously): +3.8 grams
- Body weight change, not [net] ([7]; 3 mg/kg/day): +1.59 grams
- Body weight change, gross ([7]; 3 mg/kg/day): +3.84 grams
- % Inhibition (tumor growth) ([7]; 3 mg/kg/day): 12%
- Average tumor weight ([7]; 3 mg/kg/day): 2.253 grams
- Body weight change, not [net] ([7]; 6 mg/kg/day): +1.07 grams
- Body weight change, gross ([7]; 6 mg/kg/day): +2.59 grams
- % Inhibition (tumor growth) ([7]; 6 mg/kg/day): 41.1%
- Average tumor weight ([7]; 6 mg/kg/day): 1.522 grams
- increase of average survival ([8]; 8 times within 12 days): 50.8%
- Tumor growth inhibition ([8]; 8 times within 12 days, 9th day): 71.0 % of the control
- Tumor growth inhibition ([8]; 8 times within 12 days, 29th day): 31.6 % of the control
- Average survival time ([8]; 8 times within 12 days, controls 16.9): 25.5 days
- tumor growth inhibition (in words) ([8]; 20 days after the injections were stopped): still continues in a remarkable degree
- tumor growth inhibition (in words) ([8]; during the treatment): considerable during the treatment
- antimicrobial spectrum [9]: embraces grampositive, gram-negative bacteria, fungi and protozoa
- bacteriostatic activity against several microorganisms [9]: remarkable bacteriostatic activity against several microorganisms
- LD50 ([10]; intravenous): 13 to 15 mg/kg
- LD50 ([10]; ip, intraperitoneal): 8 mg/kg
- % Inhibition (tumor growth) ([11]; 1 mg/kg/day intravenously): 42.1%
- Average tumor weight ([11]; 1 mg/kg/day intravenously): 9.443 grams
- Mortality ([11]; 1 mg/kg/day intravenously): 1/10
- Body weight change, not [net] ([11]; 1 mg/kg/day intravenously): +0.76 grams
- Body weight change, gross ([11]; 1 mg/kg/day intravenously): +10.2 grams
- tolerance ([11]; 2 mg/kg/day intravenously): tolerated
- % Inhibition (tumor growth) ([11]; 2 mg/kg/day intravenously): 66.1%
- Average tumor weight ([11]; 2 mg/kg/day intravenously): 5.404 grams
- Mortality ([11]; 2 mg/kg/day intravenously): 1/10
- Body weight change, not [net] ([11]; 2 mg/kg/day intravenously): +22.25 grams
- Body weight change, gross ([11]; 2 mg/kg/day intravenously): +27.9 grams
- effect on this type of tumor ([11]; especially with 2 mg/kg/day intravenously): marked inhibitory effect
- solubility ([12]; in alcohols, ketones, halogenated hydrocarbons, aqueous solutions of organic and inorganic acids): soluble
- solubility ([12]; in ethers and saturated hydrocarbons): practically insoluble
- solubility in water ([12]; water): slightly soluble
- Body weight increase ([13]; 7 days after implantation, controls +6.3): +0.1 grams
- Body weight increase ([13]; 12 days after implantation, controls +14.2): +2.2 grams
- Average survival time ([13]; controls 12.4): 35.1 days
- Body weight increase ([14]; 0.75 mg/kg/day, 7 days after implantation, controls +9.6): +2.9 grams
- Body weight increase ([14]; 0.75 mg/kg/day, 14 days after implantation, controls +21.4): +5.3 grams
- Body weight increase ([14]; 1.25 mg/kg/day, 7 days after implantation, controls +9.6): +1.5 grams
- Body weight increase ([14]; 1.25 mg/kg/day, 14 days after implantation, controls +21.4): +3.1 grams
- Body weight increase ([14]; 1.25 mg/kg/day, 21 days after implantation): +4.4 grams
- Average survival time ([14]; 1.25 mg/kg/day): 32.0 days
- Body weight increase ([14]; 1.75 mg/kg/day, 7 days after implantation, controls +9.6): +1.3 grams
- Body weight increase ([14]; 1.75 mg/kg/day, 14 days after implantation, controls +21.4): +2.4 grams
- Body weight increase ([14]; 1.75 mg/kg/day, 21 days after implantation): +4.7 grams
- Average survival time ([14]; 1.75 mg/kg/day): 36.4 days
- average survival rate of the treated animals ([14]; 1.75 and 1.25 mg/kg/day): increased considerably
- effect on the ascitic tumor growth ([14]; 1.75 and 1.25 mg/kg/day): remarkable inhibitory effect on the ascitic tumor growth
